According to paper PMC6199744, “Development of Chemical Proteomics for the Folateome and Analysis of the Kinetoplastid Folateome” (ACS Infectious Diseases, 2018):
Like-named read-outs stand apart in the source and are kept apart here.

Experiments:
Type in all cases: binding
[1] = biological target: T1, HeLa cell extract proteins (Homo sapiens, UniProt Q92945)
T1 construct: endogenous in cells; host or cells: HeLa cell extract
T1 sequence (Q92945 1-711): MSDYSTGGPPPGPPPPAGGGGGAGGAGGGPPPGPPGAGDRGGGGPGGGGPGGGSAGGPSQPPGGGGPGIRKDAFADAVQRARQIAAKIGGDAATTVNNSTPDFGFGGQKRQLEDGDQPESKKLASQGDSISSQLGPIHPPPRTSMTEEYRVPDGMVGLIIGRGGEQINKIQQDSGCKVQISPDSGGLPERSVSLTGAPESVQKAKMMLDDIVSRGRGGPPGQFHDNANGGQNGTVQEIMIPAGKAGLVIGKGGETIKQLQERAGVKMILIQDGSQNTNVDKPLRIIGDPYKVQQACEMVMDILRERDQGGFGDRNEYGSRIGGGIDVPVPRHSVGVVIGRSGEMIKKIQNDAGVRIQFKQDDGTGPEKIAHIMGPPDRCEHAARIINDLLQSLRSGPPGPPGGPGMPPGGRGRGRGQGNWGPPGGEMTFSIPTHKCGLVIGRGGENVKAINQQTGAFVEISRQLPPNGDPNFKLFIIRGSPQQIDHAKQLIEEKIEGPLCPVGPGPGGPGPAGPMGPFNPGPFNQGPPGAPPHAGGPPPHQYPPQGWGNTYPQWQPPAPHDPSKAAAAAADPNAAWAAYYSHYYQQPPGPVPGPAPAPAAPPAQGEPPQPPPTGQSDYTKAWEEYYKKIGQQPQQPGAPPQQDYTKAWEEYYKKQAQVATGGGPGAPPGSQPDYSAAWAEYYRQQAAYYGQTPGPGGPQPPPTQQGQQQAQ

[2] = biological target: T2, HeLa cell extract proteins (Homo sapiens, UniProt P40227)
T2 construct: endogenous in cells; host or cells: HeLa cell extract

[3] = biological target: T3, HeLa cell extract proteins (Homo sapiens, UniProt Q9P2K8)
T3 construct: endogenous in cells; host or cells: HeLa cell extract

[4] = biological target: T4, HeLa cell extract proteins (Homo sapiens, UniProt P07339)
T4 construct: endogenous in cells; host or cells: HeLa cell extract

[5] = biological target: T5, HeLa cell extract proteins (Homo sapiens, UniProt Q86VP6)
T5 construct: endogenous in cells; host or cells: HeLa cell extract
T5 sequence (Q86VP6 1-1230): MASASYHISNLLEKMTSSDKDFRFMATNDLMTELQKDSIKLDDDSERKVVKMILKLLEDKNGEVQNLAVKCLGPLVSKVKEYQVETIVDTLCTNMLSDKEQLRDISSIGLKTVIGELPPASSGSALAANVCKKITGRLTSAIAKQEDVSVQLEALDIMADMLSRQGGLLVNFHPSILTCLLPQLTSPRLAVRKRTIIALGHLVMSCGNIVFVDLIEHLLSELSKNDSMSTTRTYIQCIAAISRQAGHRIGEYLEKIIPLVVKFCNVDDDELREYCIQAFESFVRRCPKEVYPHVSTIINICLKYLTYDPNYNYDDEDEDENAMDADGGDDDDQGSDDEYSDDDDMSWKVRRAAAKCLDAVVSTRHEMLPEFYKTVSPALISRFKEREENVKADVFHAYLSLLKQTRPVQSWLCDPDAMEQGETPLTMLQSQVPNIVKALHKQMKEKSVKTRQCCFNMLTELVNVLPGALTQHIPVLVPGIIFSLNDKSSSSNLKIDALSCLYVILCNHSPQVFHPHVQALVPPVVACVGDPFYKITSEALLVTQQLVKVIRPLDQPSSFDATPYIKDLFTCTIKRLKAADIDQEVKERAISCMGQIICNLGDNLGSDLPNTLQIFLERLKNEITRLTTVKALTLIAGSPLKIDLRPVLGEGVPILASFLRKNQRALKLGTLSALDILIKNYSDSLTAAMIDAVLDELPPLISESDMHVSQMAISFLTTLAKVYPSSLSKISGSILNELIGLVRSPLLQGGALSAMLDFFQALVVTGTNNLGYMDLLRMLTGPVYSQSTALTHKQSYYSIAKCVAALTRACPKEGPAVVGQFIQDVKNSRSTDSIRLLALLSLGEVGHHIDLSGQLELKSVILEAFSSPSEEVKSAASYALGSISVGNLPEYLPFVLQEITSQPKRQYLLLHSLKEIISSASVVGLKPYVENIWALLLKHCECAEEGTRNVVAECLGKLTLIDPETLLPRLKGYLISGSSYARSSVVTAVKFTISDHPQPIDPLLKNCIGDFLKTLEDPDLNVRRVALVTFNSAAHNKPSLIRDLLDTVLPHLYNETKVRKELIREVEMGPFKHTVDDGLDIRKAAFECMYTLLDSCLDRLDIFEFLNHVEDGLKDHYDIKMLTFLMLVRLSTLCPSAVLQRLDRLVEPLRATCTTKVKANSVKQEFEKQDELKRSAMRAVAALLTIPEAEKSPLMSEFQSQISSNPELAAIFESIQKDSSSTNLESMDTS

[6] = biological target: T6, HeLa cell extract proteins (Homo sapiens, UniProt Q86X55)
T6 construct: endogenous in cells; host or cells: HeLa cell extract
T6 sequence (Q86X55 1-608): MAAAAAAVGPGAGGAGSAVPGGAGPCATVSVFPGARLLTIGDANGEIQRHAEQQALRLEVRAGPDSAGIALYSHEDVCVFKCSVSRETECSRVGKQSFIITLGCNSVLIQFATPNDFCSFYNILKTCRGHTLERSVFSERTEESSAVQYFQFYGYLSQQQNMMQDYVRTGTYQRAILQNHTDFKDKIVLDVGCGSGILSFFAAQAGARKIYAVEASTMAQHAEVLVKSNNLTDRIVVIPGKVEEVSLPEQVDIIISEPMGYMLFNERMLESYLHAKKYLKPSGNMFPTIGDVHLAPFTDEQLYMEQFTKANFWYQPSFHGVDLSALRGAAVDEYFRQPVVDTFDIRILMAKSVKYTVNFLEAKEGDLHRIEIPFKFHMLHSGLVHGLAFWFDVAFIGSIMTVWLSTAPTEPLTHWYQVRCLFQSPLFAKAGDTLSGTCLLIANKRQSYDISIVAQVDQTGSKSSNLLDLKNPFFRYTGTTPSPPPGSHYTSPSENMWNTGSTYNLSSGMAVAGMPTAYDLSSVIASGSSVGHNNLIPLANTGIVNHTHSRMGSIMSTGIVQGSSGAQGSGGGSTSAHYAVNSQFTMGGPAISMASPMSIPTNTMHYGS

[7] = biological target: T7, HeLa cell extract proteins (Homo sapiens, UniProt P42704)
T7 construct: endogenous in cells; host or cells: HeLa cell extract

T3 sequence (Q9P2K8 whole entry): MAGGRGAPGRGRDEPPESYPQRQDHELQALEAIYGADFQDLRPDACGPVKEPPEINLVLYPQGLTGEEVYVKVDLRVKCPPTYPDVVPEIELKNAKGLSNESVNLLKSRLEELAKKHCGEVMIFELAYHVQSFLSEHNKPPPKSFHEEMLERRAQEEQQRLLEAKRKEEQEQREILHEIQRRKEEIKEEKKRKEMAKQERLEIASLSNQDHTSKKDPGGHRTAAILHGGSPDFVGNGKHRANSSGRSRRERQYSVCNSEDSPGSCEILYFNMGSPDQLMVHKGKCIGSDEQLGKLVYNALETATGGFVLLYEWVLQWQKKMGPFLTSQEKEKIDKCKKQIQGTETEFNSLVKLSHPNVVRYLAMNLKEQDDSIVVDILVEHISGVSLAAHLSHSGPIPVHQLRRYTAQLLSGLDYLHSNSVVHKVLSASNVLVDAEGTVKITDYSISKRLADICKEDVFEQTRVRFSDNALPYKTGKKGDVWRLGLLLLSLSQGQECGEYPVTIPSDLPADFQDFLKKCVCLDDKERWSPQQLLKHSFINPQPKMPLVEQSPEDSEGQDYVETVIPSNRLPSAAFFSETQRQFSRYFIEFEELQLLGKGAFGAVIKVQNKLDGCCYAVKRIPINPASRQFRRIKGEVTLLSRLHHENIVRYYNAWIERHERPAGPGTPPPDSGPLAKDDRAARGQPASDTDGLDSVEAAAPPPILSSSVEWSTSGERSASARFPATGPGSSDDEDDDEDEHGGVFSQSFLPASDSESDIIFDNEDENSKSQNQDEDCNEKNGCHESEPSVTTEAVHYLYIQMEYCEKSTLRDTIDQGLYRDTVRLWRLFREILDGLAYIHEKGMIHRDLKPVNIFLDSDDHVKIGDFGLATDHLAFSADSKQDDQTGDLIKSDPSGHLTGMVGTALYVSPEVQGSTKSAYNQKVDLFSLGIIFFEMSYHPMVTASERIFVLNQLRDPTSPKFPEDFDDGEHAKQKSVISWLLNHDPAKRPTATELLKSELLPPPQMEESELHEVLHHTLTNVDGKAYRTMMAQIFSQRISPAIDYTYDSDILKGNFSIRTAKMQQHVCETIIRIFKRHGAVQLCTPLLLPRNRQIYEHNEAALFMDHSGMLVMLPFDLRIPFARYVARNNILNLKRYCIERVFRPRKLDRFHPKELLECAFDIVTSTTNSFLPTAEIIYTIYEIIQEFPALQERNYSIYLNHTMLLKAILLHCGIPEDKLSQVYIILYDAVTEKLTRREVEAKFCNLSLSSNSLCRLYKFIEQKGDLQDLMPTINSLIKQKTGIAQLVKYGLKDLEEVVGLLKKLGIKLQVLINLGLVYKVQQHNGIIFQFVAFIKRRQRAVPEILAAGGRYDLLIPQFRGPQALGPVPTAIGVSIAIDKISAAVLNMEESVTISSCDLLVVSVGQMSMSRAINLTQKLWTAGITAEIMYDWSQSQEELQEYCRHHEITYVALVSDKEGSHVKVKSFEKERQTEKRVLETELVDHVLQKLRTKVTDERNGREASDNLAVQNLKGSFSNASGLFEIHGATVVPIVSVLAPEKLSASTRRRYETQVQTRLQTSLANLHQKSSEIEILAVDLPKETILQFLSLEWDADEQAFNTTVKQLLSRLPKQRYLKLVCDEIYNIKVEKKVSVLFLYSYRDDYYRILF
T2 sequence (P40227 whole entry): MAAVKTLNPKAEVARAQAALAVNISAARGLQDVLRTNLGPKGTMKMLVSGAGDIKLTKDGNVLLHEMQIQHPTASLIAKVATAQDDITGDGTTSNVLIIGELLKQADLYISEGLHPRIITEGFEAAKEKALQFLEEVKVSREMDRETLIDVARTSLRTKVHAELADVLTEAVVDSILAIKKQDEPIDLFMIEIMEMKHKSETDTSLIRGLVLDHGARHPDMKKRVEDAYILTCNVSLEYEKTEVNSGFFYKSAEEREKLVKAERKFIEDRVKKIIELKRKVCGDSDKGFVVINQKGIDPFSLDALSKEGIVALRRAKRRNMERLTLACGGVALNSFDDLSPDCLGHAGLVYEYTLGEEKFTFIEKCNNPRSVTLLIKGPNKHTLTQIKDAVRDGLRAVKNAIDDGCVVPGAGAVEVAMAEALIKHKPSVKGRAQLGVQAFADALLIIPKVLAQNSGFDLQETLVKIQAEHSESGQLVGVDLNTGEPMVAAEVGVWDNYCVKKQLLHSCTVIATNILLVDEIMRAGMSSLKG
T4 sequence (P07339 65-412): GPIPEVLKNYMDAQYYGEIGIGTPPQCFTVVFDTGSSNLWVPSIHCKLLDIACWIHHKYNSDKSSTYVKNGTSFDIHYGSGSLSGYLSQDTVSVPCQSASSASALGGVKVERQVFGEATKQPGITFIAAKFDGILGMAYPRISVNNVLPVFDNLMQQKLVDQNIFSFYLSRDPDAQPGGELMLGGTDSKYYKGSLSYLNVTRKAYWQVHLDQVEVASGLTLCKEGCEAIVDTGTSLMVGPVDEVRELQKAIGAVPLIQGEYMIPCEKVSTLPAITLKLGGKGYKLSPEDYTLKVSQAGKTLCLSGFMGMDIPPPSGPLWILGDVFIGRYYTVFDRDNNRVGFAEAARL

Compound | fold changes relative to vehicle control ([1]; HeLa, protein KHSRP) | fold changes relative to vehicle control ([2]; HeLa, protein CCT6A) | fold changes relative to vehicle control ([3]; HeLa, protein EIF2AK4 (ISOFORM 1 OF EUKARYOTIC TRANSLATION INITIATION FACTOR 2-ALPHA KINASE 4)) | fold changes relative to vehicle control ([4]; HeLa, captured protein CTSD) | fold changes relative to vehicle control ([5]; protein CAND1, HeLa) | fold changes relative to vehicle control ([6]; HeLa, protein CARM1) | fold changes relative to vehicle control ([7]; HeLa, protein LRPPRC) | fold changes relative to vehicle control [1] | fold changes relative to vehicle control [2] | fold changes relative to vehicle control [3] | fold changes relative to vehicle control [4] | fold changes relative to vehicle control [5] | fold changes relative to vehicle control [6] | fold changes relative to vehicle control [7] | fold changes relative to vehicle control ([1]; captured protein KHSRP, HeLa) | fold changes relative to vehicle control ([2]; protein CCT6A, HeLa) | fold changes relative to vehicle control ([3]; captured protein EIF2AK4, HeLa) | fold changes relative to vehicle control ([4]; protein CTSD, HeLa) | fold changes relative to vehicle control ([7]; protein LRPPRC, HeLa)
Nc1nc2c(c(=O)[nH]1)N(C=O)C(CNc1ccc(C(=O)N[C@@H](CCC(=O)O)C(=O)O)cc1)CN2 (stereo partly shown) [LEU, leucovorin] | 0.9 | 1.01 | 0.83 | 0.96 | 0.99 | 0.95 | 0.92 |  |  |  |  |  |  |  |  |  |  |  | 
Nc1nc2[nH]cc(CCc3ccc(C(=O)N[C@@H](CCC(=O)O)C(=O)O)cc3)c2c(=O)[nH]1 [PTX, pemetrexed] |  |  |  |  |  |  |  | 0.97 | 1.11 | 0.65 | 1 | 0.96 | 0.9 | 1.15 |  |  |  |  | 
CCCCCCOc1ccc(Cc2cnc(N)nc2N)cc1 [compound 1] |  |  |  |  | 1.15 | 1.02 |  |  |  |  |  |  |  |  | 0.74 | 1.39 | 0.97 | 1.14 | 0.92
CCCCCCOc1cccc(Cc2cnc(N)nc2N)c1 [compound 2] |  |  |  |  | 1.95 | 0.98 |  |  |  |  |  |  |  |  | 0.96 | 2.04 | 0.96 | 1.26 | 1.33
Nc1nc2cccc(-c3ccccc3)c2n1Cc1ccc(Cl)c(Cl)c1 [compound 3] |  |  |  |  | 0.86 | 0.95 |  |  |  |  |  |  |  |  | 0.84 | 1.04 | 1.02 | 0.95 | 0.74
NCCOCCOCC(=O)Nc1nc2ncc(CNc3ccc(C(=O)NC(CCC(=O)O)C(=O)O)cc3)nc2c(=O)[nH]1 (stereo not shown) [compound 6] | 0.96 | 1.19 |  | 1.12 | 1.11 | 0.89 | 1.22 |  |  | 1.02 |  |  |  |  |  |  |  |  | 
NCCCNc1ccc(C(=O)NC(CCC(=O)O)C(=O)O)cc1 (stereo not shown) [compound 7] | 0.95 | 1.31 |  | 0.96 | 0.77 | 1 | 1.21 |  |  | 1.02 |  |  |  |  |  |  |  |  | 
